Legend:
Redd1 = Redd1 expression in gastrocnemius tissue, forced oral administration test; type: in vivo, mice; conditions: 200 mg/kg QG or equivalent amount of quercetin, with DEX 10 mg/L in drinking water, compared to the DEX group, FIG. 4
Description: (§1) Thereafter, for the purpose of a detailed analysis of the molecular mechanisms, the expression of genes involved in muscle atrophy in gastrocnemius tissue was analyzed. RNA was extracted from the cryopreserved gastrocnemius samples using ISOGEN (Nippon Gene Co., Ltd.) and the RNeazy Mini Kit (Qiagen). Then, cDNA synthesis was conducted using the High-Capacity cDNA Reverse Transcriptional Kits (Applied biosystems). Based on the constructed cDNAs, the messenger RNA (mRNA) levels of the muscle atrophy-related genes (Atrogin-1, MuRF-1, Foxo1, Redd1, and Mstn) and the control gene (18SrRNA) were determined by quantitative reverse transcription PCR using the TaqMan Fast Universal PCR Master Mix (Applied biosystems). The values obtained were expressed as mean±standard deviation. The differences in average gene expression levels between the DEX group and each of the DEX+QG groups were analyzed by Student's t-test, with p-values below 5% being considered significant. BALB/c male mice aged 7 weeks were habituated for one week, and then allowed to ingest 10 mg/L dexamethasone (DEX) in drinking water ad libitum. […] The differences in average gene expression levels between the DEX group and each of the DEX+QG group and the DEX+Q group were analyzed by Dunnett's test, with p-values below 5% being considered significant.

BALB/c male mice = assay: Dexamethasone-induced muscle atrophy, forced oral administration test, gastrocnemius weight/body weight ratio; type: in vivo; conditions: 200 mg/kg QG or equivalent amount of quercetin in terms of rutin, with DEX 10 mg/L in drinking water, compared to the DEX group, FIG. 3
Description: BALB/c male mice aged 7 weeks were habituated for one week, and then allowed to ingest 10 mg/L dexamethasone (DEX) in drinking water ad libitum. Next, 200 mg/kg quercetin glycoside (QG) and an equivalent amount of quercetin (Q) in terms of rutin were each suspended in milliQ water containing 0.5% carboxymethyl cellulose sodium salt, and the suspensions were each forcibly administered orally […] to the mice for five days (from Monday to Friday). Then, administration of 10 mg/L DEX in drinking water was started from Friday. In the next week, forced oral QG/Q administration was resumed (from Monday to Thursday) concurrently with DEX administration in drinking water, and the mice were dissected on Friday. Sample collection after the administration test, muscle atrophy evaluation based on gastrocnemius weight (GW)/body weight (BW) ratio, and gene expression level analysis in gastrocnemius tissue were performed according to the procedures described in Examples 1 and 2. The differences in average gene expression levels between the DEX group and each of the DEX+QG group and the DEX+Q group were analyzed by Dunnett's test, with p-values below 5% being considered significant.

MuRF-1 = MuRF-1 expression in gastrocnemius tissue, forced oral administration test; type: in vivo, mice; conditions: 200 mg/kg QG or equivalent amount of quercetin, with DEX 10 mg/L in drinking water, compared to the DEX group, FIG. 4
Description: as §1

Foxo1 = Foxo1 expression in gastrocnemius tissue, forced oral administration test; type: in vivo, mice; conditions: 200 mg/kg QG or equivalent amount of quercetin, with DEX 10 mg/L in drinking water, compared to the DEX group, FIG. 4
Description: as §1

O=c1c(O)c(-c2ccc(O)c(O)c2)oc2cc(O)cc(O)c12 [quercetin]
expression of Redd1 increased by DEX administration (Redd1): not effective in inhibiting the expression | GW/BW ratio (gastrocnemius weight divided by body weight) (BALB/c male mice): not effective in improving the GW/BW ratio | expression of MuRF-1 increased by DEX administration (MuRF-1): not effective in inhibiting the expression | expression of Foxo1 increased by DEX administration (Foxo1): not effective in inhibiting the expression

Source: patent US20170042924A1, “MUSCLE ATROPHY INHIBITOR CONTAINING QUERCETIN GLYCOSIDE” (SUNTORY HOLDINGS LIMITED, priority 2014, published 2017)
